Measurements reported in patent US20070134753A1, “Assay for determining the activity of fatty acid amide hydrolase” (priority 2002, published 2007).
Where “and” joins values, the source holds several entries; their conditions need not be identical. Identical values can stand only once. Like-named read-outs stand apart in the source and are kept apart here.

Experiments:
FAAH [1] = molecular target: T1, FAAH (Rattus norvegicus, UniProt P97612); set-up: other: literature data; conditions: read-out: Literature (ref) IC50; cited from earlier work
T1 sequence (P97612 1-579): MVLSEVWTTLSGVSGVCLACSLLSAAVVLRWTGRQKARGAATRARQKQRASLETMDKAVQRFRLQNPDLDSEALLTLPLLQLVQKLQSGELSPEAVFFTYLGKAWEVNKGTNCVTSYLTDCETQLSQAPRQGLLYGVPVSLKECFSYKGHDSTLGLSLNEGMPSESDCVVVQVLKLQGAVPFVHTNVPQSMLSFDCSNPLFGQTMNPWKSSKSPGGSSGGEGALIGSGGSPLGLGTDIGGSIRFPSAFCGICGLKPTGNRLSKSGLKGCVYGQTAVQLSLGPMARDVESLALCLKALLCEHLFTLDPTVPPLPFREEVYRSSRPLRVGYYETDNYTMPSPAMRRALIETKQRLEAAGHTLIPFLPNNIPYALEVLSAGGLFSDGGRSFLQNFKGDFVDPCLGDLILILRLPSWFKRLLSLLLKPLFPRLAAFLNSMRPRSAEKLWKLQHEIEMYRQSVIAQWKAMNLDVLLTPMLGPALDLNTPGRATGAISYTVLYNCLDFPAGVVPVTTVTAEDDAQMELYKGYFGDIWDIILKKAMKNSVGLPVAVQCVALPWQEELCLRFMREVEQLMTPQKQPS

FAAH [2] = molecular target: T1, FAAH; conditions: cited from earlier work
human FAAH = molecular target: T2, human FAAH (Homo sapiens, UniProt O00519); assay: FAAH charcoal filter-plate assay with 3H-anandamide in T84 membranes; format: biochemical; conditions: for IC50 values (in words): product inhibition
T2 construct: T84 frozen pellets were homogenized in FAAH assay buffer; endogenous in cells; host or cells: T84 human colorectal carcinoma cells (ATCC CCL-248), homogenate/membranes
T2 sequence (O00519 1-579): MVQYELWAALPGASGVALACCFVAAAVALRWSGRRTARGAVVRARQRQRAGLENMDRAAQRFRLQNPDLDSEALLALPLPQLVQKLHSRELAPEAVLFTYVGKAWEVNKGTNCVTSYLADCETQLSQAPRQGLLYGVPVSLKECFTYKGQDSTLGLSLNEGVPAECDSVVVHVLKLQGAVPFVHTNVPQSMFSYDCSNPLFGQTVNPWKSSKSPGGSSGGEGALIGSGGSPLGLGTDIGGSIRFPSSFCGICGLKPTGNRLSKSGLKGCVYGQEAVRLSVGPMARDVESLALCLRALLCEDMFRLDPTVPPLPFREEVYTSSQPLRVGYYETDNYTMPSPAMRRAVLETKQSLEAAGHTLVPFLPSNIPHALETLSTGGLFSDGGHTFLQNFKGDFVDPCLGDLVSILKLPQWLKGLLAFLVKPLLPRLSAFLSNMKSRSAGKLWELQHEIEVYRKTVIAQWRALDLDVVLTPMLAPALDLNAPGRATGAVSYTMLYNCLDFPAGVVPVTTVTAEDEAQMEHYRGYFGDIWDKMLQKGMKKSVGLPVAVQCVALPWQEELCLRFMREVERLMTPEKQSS

FAAH [3] = molecular target: T3, FAAH (Mus musculus, UniProt O08914); conditions: cited from earlier work
T3 construct: it abolished anandamide hydrolysis in N18 mouse neuroblastoma cells; host or cells: N18 mouse neuroblastoma cells
T3 sequence (O08914 1-579): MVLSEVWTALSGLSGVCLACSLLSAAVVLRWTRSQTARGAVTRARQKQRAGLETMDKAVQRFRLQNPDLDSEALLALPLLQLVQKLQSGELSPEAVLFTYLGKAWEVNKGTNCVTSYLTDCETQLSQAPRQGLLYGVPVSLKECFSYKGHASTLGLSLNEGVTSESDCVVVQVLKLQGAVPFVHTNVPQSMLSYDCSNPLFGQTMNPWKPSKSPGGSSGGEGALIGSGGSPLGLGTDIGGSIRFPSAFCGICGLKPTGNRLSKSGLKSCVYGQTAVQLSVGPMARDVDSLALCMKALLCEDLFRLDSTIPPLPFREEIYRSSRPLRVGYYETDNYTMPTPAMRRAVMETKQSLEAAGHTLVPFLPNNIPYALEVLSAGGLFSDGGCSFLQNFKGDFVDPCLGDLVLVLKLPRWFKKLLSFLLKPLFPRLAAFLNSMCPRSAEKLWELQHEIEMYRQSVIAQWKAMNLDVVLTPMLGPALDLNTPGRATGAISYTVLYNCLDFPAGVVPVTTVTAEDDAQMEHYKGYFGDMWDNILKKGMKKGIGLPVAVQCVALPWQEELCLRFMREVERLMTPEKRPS

FAAH [4] = molecular target: FAAH (Homo sapiens, UniProt O00519); conditions: human brain; Maccarrone et al. 1999; cited from earlier work
[5] = T84 membranes, room temperature 60 min, average ± S.E. of 2-5 experiments, each in triplicate, read-out: IC50

## O=S(=O)(F)Cc1ccccc1 [Phenylmethylsulfonyl fluoride]
FAAH [1]
  IC50: 1200 to 69000 nM
FAAH [2]; at 25 μM, Desarnaud et al. 1995
  inhibition of the hydrolysis of rat brain microsomal anandamide: 48%
Human FAAH; IC50
  IC50: 16000 nM
FAAH [3]; at a concentration of 100 μM, Maurelli et al. 1995
  anandamide hydrolysis in N18 mouse neuroblastoma cells: abolished

## CCCCCCCC/C=C\CCCCCCCCC(=O)C(F)(F)F [Oleyl trifluoromethyl ketone, oleyl trifluoromethyl ketone]
FAAH [1]
  IC50: 39 nM and 24 to 41 nM

## CCCCC/C=C\C/C=C\C/C=C\C/C=C\CCCC(=O)O [Arachidonic acid]
Human FAAH; T84 membranes
  IC50 values (in words): low micromolar range
Human FAAH; [5]
  IC50: 931 ± 255 nM

## CCCCCCCC/C=C\CCCCCCCC(=O)O [Oleic acid]
Human FAAH; T84 membranes
  IC50 values (in words): low micromolar range
Human FAAH; [5]
  IC50: 1940 ± 401 nM

## CCCCC/C=C\C/C=C\C/C=C\C/C=C\CCCC(=O)NCCO [anandamide, N-arachidonoylethanolamine]
FAAH [2]
  Km: 12.7 µM
Human FAAH; read-out: Km of hydrolysis by FAAH
  Km: 1.1 ± 0.17 µM
FAAH [4]
  Km: 2 µM
FAAH [3]
  Km: 9 µM
  activity of FAAH: abolished
